From patent publication US4894377A, “β-carbolines and their use as medicinal agents” (Schering Aktiengesellschaft, priority 1983, dated 1990) come the findings set out here.

Test [1] relates to convulsions induced by 6,7-dimethoxy-4-ethyl-β-carboline-3-carboxylic acid methyl ester (DMCM). The test is described as follows: protection from convulsions and death induced by DMCM. The conditions noted are these: Mus musculus, ip; protects 50% of mice from convulsions and death; test compound intraperitoneal, 15-30 minutes before DMCM. The class given is in vivo. How it is done: (§1) The compounds of this invention show, in a pharmacological test, anxiolytic, antiagressive, and anticonvulsive activities. Two testing systems were employed to examine the anticonvulsive effect. The elimination of convulsions induced, on the one hand, by pentylenetetrazole (Pentazol) and, on the other hand, by 6,7-dimethoxy-4-ethyl-β-carboline-3-carboxylic acid methyl ester (DMCM) was examined. Pentazol and DMCM, respectively, are administered 15-30 minutes after intraperitoneal administration of the test compound in an amount of 15 mg/kg as an aqueous solution (pH 7) intraperitoneally and, respectively, in an amount of 150 mg/kg as a hydrochloric acid solution (pH 2-3) subcutaneously. These quantities induce clonic and tonic convulsions leading to death in untreated animals.
(§2) The ED50 values indicated in the table were determined according to the method by Litchfield and Wilcoxon (1949) as the amount of antagonistically active compound required to protect 50% of the animals from convulsions and death.

For test [2], the target named is benzodiazepine receptors. The test is described as follows: displacement of specific binding of 3H flunitrazepam in vitro (rat cerebral membrane suspension). Particulars: 50% displacement of specific binding of 3H flunitrazepam (1.0 nM, 0° C.), rat cerebrum.
Test [3] has as its system clonic convulsions at 111 dB. The test is described as follows: audiogenic seizure test. It counts as in vivo. The conditions noted are these: Mus musculus, ip, 0.5 h; dose at which 40% of mice show no convulsions at 111 dB (14 kHz); DBA/2 mice, intraperitoneal, 30 minutes prior. How it is done:
The compounds of this invention also show a convulsion-relieving and/or convulsion-eliminating effect in the audiogenic seizure test. For this purpose, 18-21 day old male mice weighing 8-12 g (DBA/2 mice) receive intraperitoneally the compound to be tested as an ultrasound microsuspension in water/"Cremofor" EL (95:5) 30 minutes prior to testing. The animals are then exposed, in a soundproof wooden box (25×22×15 cm), to a sinusoidal sound of 14 kHz at 111 dB. The sound is generated immediately after transferring the animal into the box. Occurrence of clonic convulsions is recorded for 30 seconds. The ED50 value in the table indicates the dose at which 40% of the mice show no convulsions at 111 dB (80% of the control mice show convulsions at 111 dB).

The test system of test [4] is convulsions induced by pentylenetetrazole (Pentazol). The experiment in a line: protection from convulsions and death induced by pentylenetetrazole (Pentazol). It counts as in vivo. The conditions noted are these: Mus musculus, ip; protects 50% of mice from convulsions and death; test compound intraperitoneal, 15-30 minutes before Pentazol. How it is done:
as §1, §2

In brackets after ≈: the same amount, converted by molar mass.

As for `CCOC(=O)c1ncc2[nH]c3cccc(OC(C)c4ccccc4)c3c2c1COC` (stereo not drawn) [α-methyl], the ED50 (usually the dose that gives a 50% effect, or the effect in half of the subjects) in test [1] came out at 0.1 mg/kg; in test [3] it was 0.01 mg/kg; in test [4], 3 mg/kg. Further, in test [2], the “IC50 (in vitro)” value came out at 1.1 ng/mL (≈ 2.72 nM).

In the case of `CCOC(=O)c1ncc2[nH]c3cccc(OC(C)c4cccc(Cl)c4)c3c2c1COC` (stereo not drawn) [α-methyl, 3-chloro, 5-[1-(3-chlorophenyl)ethoxy]-4-methoxymethyl-β-carboline-3-carboxylic acid ethyl ester], the “IC50 (in vitro)” value in test [2] worked out at 4.3 ng/mL (≈ 9.8 nM). Moreover, in test [4], the ED50 came to 2 mg/kg.

For `CCOC(=O)c1ncc2[nH]c3cccc(OCc4ccc(C)cc4)c3c2c1COC` [Substituent 4-methyl, 5-(4-methylbenzyloxy)-4-methoxymethyl-β-carboline-3-carboxylic acid ethyl ester], the “IC50 (in vitro)” value in test [2] is 0.9 ng/mL (≈ 2.23 nM). In addition, in test [4], it took a dose of 30 mg/kg to reach the 50% effect level (ED50).

Consider `CCOC(=O)c1ncc2[nH]c3cccc(OCc4ccccc4)c3c2c1COC`, for which the 50% effective dose (ED50) in test [1] turned out to be 0.6 mg/kg; in test [3], 0.5 mg/kg; in test [4], 15 mg/kg. For the same compound, in test [2], the “IC50 (in vitro)” value came out at 2 ng/mL (≈ 5.12 nM).

As to `CCOC(=O)c1ncc2[nH]c3cccc(OCc4ccc([N+](=O)[O-])cc4)c3c2c1COC` [Substituent 4-nitro, 5-(4-nitrobenzyloxy)-4-methoxymethyl-β-carboline-3-carboxylic acid ethyl ester], the “IC50 (in vitro)” value in test [2] came out at 0.2 ng/mL (≈ 0.459 nM). The ED50 in test [4] is more than 50 mg/kg.

In the case of `CCOC(=O)c1ncc2[nH]c3cccc(OCCc4ccccc4)c3c2c1COC`, in test [2], the “IC50 (in vitro)” value is 0.8 ng/mL (≈ 1.98 nM). In addition, the 50% effect level in test [4] (ED50) was put at a dose of 40 mg/kg.

As for `CCOC(=O)c1ncc2[nH]c3cccc(OCc4cccc(F)c4)c3c2c1COC` [Substituent 3-fluoro, 5-(3-fluorobenzyloxy)-4-methoxymethyl-β-carboline-3-carboxylic acid ethyl ester], the ED50 in test [1] was 0.3 mg/kg; in test [3] it was 0.05 mg/kg; in test [4] it was 12 mg/kg. Also, the “IC50 (in vitro)” value in test [2] came out at 0.3 ng/mL (≈ 0.735 nM).

Take `CCOC(=O)c1ncc2[nH]c3cccc(OCc4ccc(Cl)c(Cl)c4)c3c2c1COC` [3,4-dichloro, 5-(3,4-dichlorobenzyloxy)-4-methoxymethyl-β-carboline-3-carboxylic acid ethyl ester]: the ED50 came to 2.2 mg/kg in test [1] and 6 mg/kg in test [4]. Also, in test [2], the “IC50 (in vitro)” value came to 2.1 ng/mL (≈ 4.57 nM).

For the compound `CCOC(=O)c1ncc2[nH]c3cccc(OCc4ccc(F)cc4)c3c2c1COC` [Substituent 4-fluoro, 5-(4-fluorobenzyloxy)-4-methoxymethyl-β-carboline-3-carboxylic acid ethyl ester], the ED50 in test [1] is 0.1 mg/kg; in test [3] it was 0.2 mg/kg; in test [4], 30 mg/kg. Moreover, the “IC50 (in vitro)” value in test [2] stood at 0.4 ng/mL (≈ 0.979 nM).

`CCOC(=O)c1ncc2[nH]c3cccc(OCCCc4ccccc4)c3c2c1COC`: the ED50 turned out to be 5.5 mg/kg in test [1] and 30 mg/kg in test [4]. Besides, the “IC50 (in vitro)” value in test [2] worked out at 1.9 ng/mL (≈ 4.54 nM).

As to `CCOC(=O)c1ncc2[nH]c3cccc(OCc4ccccc4F)c3c2c1COC` [Substituent 2-fluoro, 5-(2-fluorobenzyloxy)-4-methoxymethyl-β-carboline-3-carboxylic acid ethyl ester], the ED50 in test [1] was 0.4 mg/kg; in test [3], 0.05 mg/kg; in test [4] it was 13 mg/kg. In addition, in test [2], the “IC50 (in vitro)” value amounted to 0.3 ng/mL (≈ 0.735 nM).

For the compound `CCOC(=O)c1ncc2[nH]c3cccc(OCc4ccc(C)c(C)c4)c3c2c1COC` [3,4-dimethyl, 5-(3,4-dimethylbenzyloxy)-4-methoxymethyl-β-carboline-3-carboxylic acid ethyl ester], the “IC50 (in vitro)” value in test [2] worked out at 1.7 ng/mL (≈ 4.06 nM). Further, the ED50 in test [4] came out at 30 mg/kg.

Turning to `CCOC(=O)c1ncc2[nH]c3cccc(OCc4cccc(Cl)c4)c3c2c1COC` [Substituent 3-chloro, 5-(3-chlorobenzyloxy)-4-methoxymethyl-β-carboline-3-carboxylic acid ethyl ester], the figures for the ED50 in test [1], in test [3] and in test [4] were 0.3 mg/kg, 0.08 mg/kg and 0.9 mg/kg, respectively. In test [2], the “IC50 (in vitro)” value was found to be 1.4 ng/mL (≈ 3.3 nM).

Turning to `CCOC(=O)c1ncc2[nH]c3cccc(OCc4cccc(Br)c4)c3c2c1COC` [Substituent 3-bromo, 5-(3-bromobenzyloxy)-4-methoxymethyl-β-carboline-3-carboxylic acid ethyl ester], in test [2], the “IC50 (in vitro)” value was determined as 0.8 ng/mL (≈ 1.7 nM). The ED50 in test [4] stood at 6 mg/kg.

On to `CCOC(=O)c1ncc2[nH]c3cccc(OCc4cccc(C(F)(F)F)c4)c3c2c1COC` [3-trifluoromethyl, 5-(3-trifluoromethylbenzyloxy)-4-methoxymethyl-β-carboline-3-carboxylic acid ethyl ester], for which, in test [2], the “IC50 (in vitro)” value worked out at 1.4 ng/mL (≈ 3.05 nM). For the same compound, the 50% effect level in test [4] (ED50) was put at a dose of 12 mg/kg.

For the compound `CCOC(=O)c1ncc2[nH]c3cccc(OCc4ccc(Cl)cc4)c3c2c1COC` [Substituent 4-chloro, 5-(4-chlorobenzyloxy)-4-methoxymethyl-β-carboline-3-carboxylic acid ethyl ester], the “IC50 (in vitro)” value in test [2] was determined as 0.9 ng/mL (≈ 2.12 nM). The compound also showed an ED50 in test [4] of more than 30 mg/kg.

`CCOC(=O)c1ncc2[nH]c3cccc(OCc4cccc(OC)c4)c3c2c1COC` [Substituent 3-methoxy, 5-(3-methoxybenzyloxy)-4-methoxymethyl-β-carboline-3-carboxylic acid ethyl ester]: in test [2], the “IC50 (in vitro)” value came to 0.5 ng/mL (≈ 1.19 nM). The ED50 in test [4] was more than 100 mg/kg.
